The values below come from paper PMC6499816, “Molecular determinants regulating selective binding of autophagy adapters and receptors to ATG8 proteins” (Nature Communications, 2019).

Read-outs that look alike come from different tables or passages of the source. Ends that are not written are not given here.

One assay concerns the target T1, GABARAPL1 (Homo sapiens, UniProt Q9H0R8).
T1 construct: insertion of full-length human GABARAP, GABARAP-L1, LC3A, and LC3C, and EcoRI and NotI restrictions sites for cloning of LC3B and GABARAP-L2; GST (followed by 3C protease site) (N); made in house; host or cells: bacteria (E. coli BL21 (DE3) pLysS is stated for the GST-ATG8 proteins of the overlay assay)
Description: BLI, LIR peptide binding to GABARAPL1. How it is done:
(§1) For recombinant protein expression in bacteria, a modified plasmid of pGEX-6P2 (GE Healthcare) (referred to as pAL) containing an N-terminal […] followed by a 3C protease cleavage site was used.
(§2) Expression was induced by the addition of 0.5 mM IPTG at OD600 = 0.6 and cells were incubated at 25 °C overnight or at 37 °C for 5 h. Harvested cells were lysed in 50 mM Tris-HCl, pH 8.0, 500 mM NaCl, 0.1% Triton X-100, 0.4 mM 4-(2-aminoethyl)-benzenesulfonylfluoride HCl (AEBSF), and 15 µg/ml benzamidine. Fusion protein was batch adsorbed onto Glutathione-Sepharose 4B beads (GE Healthcare). After five washes with wash buffer (50 mM Tris, pH 8.0, 250 mM NaCl, 0.4 mM AEBSF, and 15 µg/ml benzamidine), fusion proteins were eluted in 50 mM Tris, pH 8.0, 2 mM L-glutathione reduced, 0.4 mM AEBSF, and 15 µg/ml benzamidine.
(§3) The biosensor tip surface immobilized with a ligand is incubated with an analyte in solution, resulting in an increase in optical thickness at the biosensor tip and a wavelength shift, which is a direct measure of the change in thickness. […] Ligand-loaded SA biosensors were then incubated with different concentrations of ATG8. All binding experiments were performed in solid-black 96-well plates containing 200 μl of solution (25 mM Tris, pH 7.5, 150 mM NaCl, 0.5 mM TCEP, 0.1% Tween-20, 1 mg/ml bovine serum albumin (BSA)) in each well at 25 °C with an agitation speed of 1000 rpm. Each measurement was repeated two to five times.
(§4) Peptides were synthesized using FMOC (fluorenylmethoxycarbonyl) solid-phase peptide chemistry by the Francis Crick Peptide Chemistry Technology Platform and are listed in Supplementary Table 2.
On the technique in general: In BLI a coated tip is dipped into the sample, and binding shifts an interference pattern.

The next assay addresses T2, GABARAPL2 (Homo sapiens, UniProt P60520).
T2 construct: insertion of full-length human GABARAP, GABARAP-L1, LC3A, and LC3C, and EcoRI and NotI restrictions sites for cloning of LC3B and GABARAP-L2; GST (followed by 3C protease site) (N); made in house; host or cells: bacteria (E. coli BL21 (DE3) pLysS is stated for the GST-ATG8 proteins of the overlay assay)
Nature of the assay: BLI, LIR peptide binding to GABARAPL2. Particulars: read-out: Kd (best-fit value). How it is done:
as §1, §2, §3, §4

The next assay addresses T3, LC3C (Homo sapiens, UniProt Q9BXW4).
T3 construct: insertion of full-length human GABARAP, GABARAP-L1, LC3A, and LC3C, and EcoRI and NotI restrictions sites for cloning of LC3B and GABARAP-L2; GST (followed by 3C protease site) (N); made in house; host or cells: bacteria (E. coli BL21 (DE3) pLysS is stated for the GST-ATG8 proteins of the overlay assay)
Nature of the assay: BLI, LIR peptide binding to LC3C. Particulars: read-out: Kd (best-fit value). How it is done: as §1, §2, §3, §4

A further assay deals with T4, GABARAP (Homo sapiens, UniProt O95166).
T4 construct: insertion of full-length human GABARAP, GABARAP-L1, LC3A, and LC3C, and EcoRI and NotI restrictions sites for cloning of LC3B and GABARAP-L2; GST (followed by 3C protease site) (N); made in house; host or cells: bacteria (E. coli BL21 (DE3) pLysS is stated for the GST-ATG8 proteins of the overlay assay)
Nature of the assay: BLI, LIR peptide binding to GABARAP. Particulars: n=2 independent experiments, read-out: Kd (best-fit value). How it is done: as §1, §2, §3, §4

A further assay deals with T5, LC3A (Homo sapiens, UniProt Q9H492).
T5 construct: insertion of full-length human GABARAP, GABARAP-L1, LC3A, and LC3C, and EcoRI and NotI restrictions sites for cloning of LC3B and GABARAP-L2; GST (followed by 3C protease site) (N); made in house; host or cells: bacteria (E. coli BL21 (DE3) pLysS is stated for the GST-ATG8 proteins of the overlay assay)
Nature of the assay: Bio-layer interferometry (BLI), LIR peptide binding to LC3A. Particulars: read-out: Kd (best-fit value). How it is done:
as §1, §2, §3, §4

Another assay concerns the target T6, LC3B (Homo sapiens, UniProt Q9GZQ8).
T6 construct: insertion of full-length human GABARAP, GABARAP-L1, LC3A, and LC3C, and EcoRI and NotI restrictions sites for cloning of LC3B and GABARAP-L2; GST (followed by 3C protease site) (N); made in house; host or cells: bacteria (E. coli BL21 (DE3) pLysS is stated for the GST-ATG8 proteins of the overlay assay)
Nature of the assay: BLI, LIR peptide binding to LC3B. Particulars: read-out: Kd (best-fit value). How it is done:
as §1, §2
The biosensor tip surface immobilized with a ligand is incubated with an analyte in solution, resulting in an increase in optical thickness at the biosensor tip and a wavelength shift, which is a direct measure of the change in thickness. […] Ligand-loaded SA biosensors were then incubated with different concentrations of ATG8. […]

Where [1] appears, read: fit of response vs GABARAPL1 concentration (μM), n=2 independent experiments, read-out: Kd (best-fit value).
[2] abbreviates: fit of response vs GABARAP concentration (μM).
Where [3] appears, read: Fig. 4c, fit of response vs GABARAP concentration.
[4] abbreviates: Fig. 4c, fit of response vs GABARAPL1 concentration, n=2 independent experiments, read-out: Kd (best-fit value).

T2 sequence (P60520 whole entry): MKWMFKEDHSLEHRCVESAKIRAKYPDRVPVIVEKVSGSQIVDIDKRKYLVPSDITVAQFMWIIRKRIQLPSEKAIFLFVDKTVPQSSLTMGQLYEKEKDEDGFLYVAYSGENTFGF
T4 sequence (O95166 whole entry): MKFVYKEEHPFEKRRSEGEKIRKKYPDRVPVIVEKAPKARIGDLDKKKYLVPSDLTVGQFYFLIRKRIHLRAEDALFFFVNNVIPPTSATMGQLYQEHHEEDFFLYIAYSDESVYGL
T3 sequence (Q9BXW4 whole entry): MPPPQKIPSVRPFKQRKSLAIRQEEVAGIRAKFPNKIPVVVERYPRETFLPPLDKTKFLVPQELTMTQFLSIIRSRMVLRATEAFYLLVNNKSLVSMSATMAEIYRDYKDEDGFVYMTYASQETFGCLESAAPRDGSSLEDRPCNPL
T1 sequence (Q9H0R8 whole entry): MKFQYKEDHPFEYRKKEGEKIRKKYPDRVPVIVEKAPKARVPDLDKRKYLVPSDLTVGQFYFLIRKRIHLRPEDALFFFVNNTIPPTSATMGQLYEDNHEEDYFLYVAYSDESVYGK

As usually defined, the Kd is a measure of binding affinity in units of concentration. For `CSCC[C@H](NC(=O)[C@@H](NC(=O)[C@H](Cc1ccccc1)NC(=O)[C@H](CC(=O)O)NC(=O)[C@H](CC(=O)O)NC(=O)[C@@H](NC(=O)[C@@H](N)CC(=O)O)[C@@H](C)O)C(C)C)C(=O)N[C@H](C(=O)N1CCC[C@H]1C(=O)N[C@@H](C)C(=O)N[C@@H](CCC(N)=O)C(=O)N[C@@H](Cc1ccccc1)C(=O)N1CCC[C@H]1C(=O)NCC(=O)N[C@@H](CC(=O)O)C(=O)N[C@@H](CC(C)C)C(=O)N[C@H](C(=O)O)C(C)C)C(C)C` [ULK1 (aa 353-369)], the Kd came to 0.102 µM at GABARAPL1 (setting [1]) and 0.583 µM at GABARAPL2.
On to DDFVMVPAQFPGDLV [ULK1 (aa 355-369)], for which the dissociation constant (Kd) is 7.84 µM at LC3C, 0.288 µM at GABARAP (setting [2]), 0.243 µM at GABARAPL1 (setting [1]) and 2.21 µM on GABARAPL2.
DSSCDTDDFVMV [ULK1 (aa 349-360)]: the Kd came to 2.92 µM on LC3A; 8.47 µM at LC3B; 2.21 µM on LC3C; 0.218 µM at GABARAP (setting [2]); 0.22 µM on GABARAPL1 (setting [1]); 1.09 µM at GABARAPL2.
Consider DSSCDTDDFVMVPA [ULK1 (aa 349-362)], for which the Kd on LC3A came out at 9.23 µM; at LC3C it was 2.78 µM; at GABARAP (setting [2]), 0.174 µM; on GABARAPL1 (setting [1]) it was 0.148 µM; on GABARAPL2, 0.712 µM.
In the case of DSSCDTDDFVMVPAQF [ULK1 (aa 349-364)], the Kd on LC3A was determined as 8.37 µM; on LC3C it was 2.23 µM; on GABARAPL1 (setting [1]), 0.161 µM; at GABARAPL2, 0.534 µM.
Regarding “SQKSDEEDFDIIEDLPLKLTI [PCM1 V1956D/ K1957I/ V1958I]”, the Kd at LC3A came to 4.61 µM; at LC3C, 2.35 µM; on GABARAP (setting [3]), 1.39 µM; at GABARAPL1 (setting [4]) it was 0.907 µM.
As for SQKSDEEDFDKVEDLPLKLTI [PCM1 V1956D], the Kd at GABARAP (setting [3]) turned out to be 7.72 µM; on GABARAPL1 (setting [4]) it was 5.19 µM.
In the case of SQKSDEEDFVIVEDLPLKLTI [PCM1 K1967I], the results for the Kd on LC3A, at LC3C and on GABARAPL1 (setting [4]) were 3.93 µM, 0.384 µM and 0.131 µM, respectively.
With SQKSDEEDFVKIEDLPLKLTI [PCM1 V1959I], the Kd at LC3C is 6.94 µM; on GABARAP (setting [3]) it was 1.46 µM; on GABARAPL1 (setting [4]), 1.07 µM; on GABARAPL2 it was 7.58 µM.
Turning to SQKSDEEDFVKIEDLPLKLTI [Γ3], on GABARAPL1 (immobilised biotinylated LIR peptide, pH 7.5, 25 °C, mean ± s.d., n = 2–4, pictures print no unit, µM as, read-out: Kd, LIR peptide to GABARAPL1), the Kd was 1.1 ± 0.1 µM.
With SQKSDEEDFVKVEDLALKLTI [PCM1 P1962A], the Kd on LC3C came to 10.8 µM; at GABARAP (setting [3]), 0.994 µM; at GABARAPL1 (setting [4]), 0.879 µM; on GABARAPL2 it was 10.5 µM.
SQKSDEEDFVKVTDLPLKLTI [PCM1 E1959T]: the Kd at GABARAPL1 (setting [4]) is 2.89 µM.
Turning to YRPPDDAVFDIITDEELCQIQ [FYCO1 WT], the Kd at LC3A was determined as 0.778 µM; on LC3B, 1.13 µM; at LC3C it was 3.04 µM; at GABARAP (setting [3]), 1.73 µM; at GABARAPL1 (setting [4]), 0.9 µM.
